Here are results for 24 molecules from patent US20230203043A1, “NOVEL IMIDAZOPYRAZINE DERIVATIVES” (Hoffmann-La Roche Inc., priority 2020, published 2023).

The assay relates to Acinetobacter baumannii ATCC17961. Nature of the assay: Antimicrobial susceptibility testing: 90% growth inhibitory concentration (IC90) determination in Iso-Sensitest broth, OD600 growth. As to conditions: Acinetobacter baumannii, ATCC17961, 16 h. Type of assay: cell-based. The essentials: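 Serial twofold dilution, 10 points, e.g. 50–0.097 μM final; ~5×10^(5) CFU/ml; 35±2° C, 16 h; kinetic OD600 every 20 min; IC90 from log-phase inhibition.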

Setting [1] is: read-out: A. baumannii ATCC 17961 IC90 (uM), strain ATCC 17961, OD600 growth over 16 h.
Setting [2] is: strain ATCC 17961, OD600 growth over 16 h, read-out: A. baumannii ATCC 17961 IC90.

Each structure is given as a SMILES string. Structures can show the parent of a compound that is named as a salt. Where two headings read alike, the source gives them in different places. A value given as a limit tells only on which side of the number the result lay.

One may read the IC90 as the point of the concentration-response curve where the effect stands at 90%.

Regarding `C=C(Cl)Cn1cc(-c2cnc3c(Nc4ccc(C(=O)NCCOCCN)c(CC)c4)nccn23)c(C(F)(F)F)n1` [Example 274, N-[2-(2-aminoethoxy)ethyl]-4-[[3-[1-(2-chloroprop-2-enyl)-3-(trifluoromethyl)pyrazol-4-yl]imidazo[1,2-a]pyrazin-8-yl]amino]-2-ethylbenzamide formate], the concentration for an effect of 90% (IC90) under setting [1] was determined as 0.101 µM.
`C#CCn1cc(-c2cnc3c(Nc4ccc(C(=O)NC)c(Cl)c4)nccn23)c(C(F)(F)F)n1` [Example 351, 2-chloro-N-methyl-4-[[3-[1-prop-2-ynyl-3-(trifluoromethyl)pyrazol-4-yl]imidazo[1,2-a]pyrazin-8-yl]amino]benzamide]: the IC90 under setting [2] stood at 0.099 µM.
With `C[C@H](NC(=O)c1ccc(Nc2nccn3c(-c4c[nH]nc4C(F)(F)F)cnc23)cc1Cl)C(=O)N[C@H]1CCNC1` [Example 127, 2-chloro-N-[(2S)-1-oxo-1-[[(3S)-pyrrolidin-3-yl]amino]propan-2-yl]-4-[[3-[3-(trifluoromethyl)-1H-pyrazol-4-yl]imidazo[1,2-a]pyrazin-8-yl]amino]benzamide formate], the IC90 under setting [1] was above 5 µM.
Take `O=C(CNCCNC(=O)c1ccc(Nc2nccn3c(-c4cn(CC(F)F)nc4C(F)(F)F)cnc23)cc1Cl)NC1CNC1` [Example 821, N-(2-((2-(azetidin-3-ylamino)-2-oxoethyl)amino)ethyl)-2-chloro-4-(3-(1-(2,2-difluoroethyl)-3-(trifluoromethyl)-1H-pyrazol-4-yl)imidazo[1,2-a]pyrazin-8-yl)amino) benzamide formate]: under setting [2], the IC90 was 0.16 µM.
As to `CCc1cc(Nc2nccn3c(-c4c[nH]nc4C(F)(F)F)cnc23)ccc1C(=O)NCCNC(=O)NCCN` [Example 218, N-[2-(2-aminoethylcarbamoylamino)ethyl]-2-ethyl-4-[[3-[3-(trifluoromethyl)-1H-pyrazol-4-yl]imidazo[1,2-a]pyrazin-8-yl]amino]benzamide formate], under setting [1], the IC90 came out at 0.574 µM.
As to `NCC(=O)N1CCN(C(=O)c2ccc(Nc3nccn4c(-c5cn(C(F)F)nc5C(F)(F)F)cnc34)cc2Cl)CC1` [Example 78, 2-amino-1-[4-[2-chloro-4-[[3-[1-(difluoromethyl)-3-(trifluoromethyl)pyrazol-4-yl]imidazo[1,2-a]pyrazin-8-yl]amino]benzoyl]piperazin-1-yl]ethanone], under setting [2], the IC90 came to 0.161 µM.
The same measure, in the same setting: next, `Cc1cc(Nc2nccn3c(-c4cn(CC#N)nc4C(F)(F)F)cnc23)ccc1C(=O)NCCOCCN` [Example 262, N-[2-(2-aminoethoxy)ethyl]-4-[[3-[1-(cyanomethyl)-3-(trifluoromethyl)pyrazol-4-yl]imidazo[1,2-a]pyrazin-8-yl]amino]-2-methylbenzamide]: 1.1 µM.
For the molecule `CCc1cc(Nc2nccn3c(-c4c[nH]nc4C(F)(F)F)cnc23)ccc1C(=O)NCC1CNC1` [Example 513, N-(azetidin-3-ylmethyl)-2-ethyl-4-((3-(3-(trifluoromethyl)-1H-pyrazol-4-yl)imidazo[1,2-a]pyrazin-8-yl)amino)benzamide formate], the IC90 under setting [1] turned out to be 0.15 µM.
Consider `O=C(NC1CCCNC1)c1ccc(Nc2nccn3c(-c4c[nH]nc4C(F)(F)F)cnc23)cc1Cl` (stereo not drawn) [Example 414, 2-chloro-N-piperidin-3-yl-4-[[3-[3-(trifluoromethyl)-1H-pyrazol-4-yl]imidazo[1,2-a]pyrazin-8-yl]amino]benzamide], for which the concentration for an effect of 90% (IC90) under setting [2] is 4.04 µM.
Still for that read-out and setting: the same measure for `N#CCn1cc(-c2cnc3c(Nc4ccc(C(=O)N5CC(NC(=O)C6CCNCC6)C5)c(Cl)c4)nccn23)c(C(F)(F)F)n1` [Example 170, N-[1-[2-chloro-4-[[3-[1-(cyanomethyl)-3-(trifluoromethyl)pyrazol-4-yl]imidazo[1,2-a]pyrazin-8-yl]amino]benzoyl]azetidin-3-yl]piperidine-4-carboxamide]: 0.475 µM.
Turning to `CCc1cc(Nc2nccn3c(-c4c[nH]nc4C(F)(F)F)cnc23)ccc1C(=O)NCCNC(=O)[C@H](C)N` [Example 718, (S)-N-(2-(2-aminopropanamido)ethyl)-2-ethyl-4-((3-(3-(trifluoromethyl)-1H-pyrazol-4-yl)imidazo [1,2-a]pyrazin-8-yl)amino)benzamide formate], under setting [1], the concentration for an effect of 90% (IC90) was 0.435 µM.
As for `C[C@@H](NC(=O)c1ccc(Nc2nccn3c(-c4cn(CC#N)nc4C(F)(F)F)cnc23)cc1Cl)C(=O)N[C@H]1CCNC1` [Example 710, 2-chloro-4-[[3-[1-(cyanomethyl)-3-(trifluoromethyl)pyrazol-4-yl]imidazo[1,2-a]pyrazin-8-yl]amino]-N-[(1R)-1-methyl-2-oxo-2-[[(3S)-pyrrolidin-3-yl]amino]ethyl] benzamide formate], under setting [2], the concentration for an effect of 90% (IC90) came to 0.408 µM.
`N#CCn1cc(-c2cnc3c(Nc4ccc(C(=O)N5CC6(C5)CN(C(=O)[C@@H]5CCCN5)C6)c(Cl)c4)nccn23)c(C(F)(F)F)n1` [Example 636, (S)-2-(4-(8-((3-chloro-4-(6-prolyl-2,6-diazaspiro[3.3]heptane-2-carbonyl)phenyl)amino)imidazo[1,2-a]pyrazin-3-yl)-3-(trifluoromethyl)-1H-pyrazol-1-yl)acetonitrile]: under setting [2], the IC90 worked out at 0.222 µM.
For the molecule `CCc1cc(Nc2nccn3c(-c4cn(CC#N)nc4C(F)(F)F)cnc23)ccc1C(=O)NCCNC(=O)[C@@H]1C[C@@H](O)CN1` [Example 637, (2S,4R)-N-(2-(4-((3-(1-(cyanomethyl)-3-(trifluoromethyl)-1H-pyrazol-4-yl)imidazo[1,2-a]pyrazin-8-yl)amino)-2-ethylbenzamido)ethyl)-4-hydroxypyrrolidine-2-carboxamide], the IC90 under setting [2] was found to be 0.226 µM.
Turning to `N#CCn1cc(-c2cnc3c(Nc4ccc(C(=O)N5CCN(C(=O)[C@@H]6CCNC6)CC5)c(Cl)c4)nccn23)c(C(F)(F)F)n1` [Example 191, 2-[4-[8-[3-chloro-4-[4-[(3R)-pyrrolidine-3-carbonyl]piperazine-1-carbonyl]anilino]imidazo[1,2-a]pyrazin-3-yl]-3-(trifluoromethyl)pyrazol-1-yl]acetonitrile], the IC90 under setting [2] was 0.276 µM.
Turning to `NCCCNC(=O)CN1CCN(C(=O)c2ccc(Nc3nccn4c(-c5cn(CC(F)F)nc5C(F)(F)F)cnc34)cc2Cl)CC1` [Example 606, N-(3-aminopropyl)-2-(4-(2-chloro-4-((3-(1-(2,2-difluoroethyl)-3-(trifluoromethyl)-1H-pyrazol-4-yl)imidazo[1,2-a]pyrazin-8-yl)amino)benzoyl)piperazin-1-yl)acetamide formate], the 90% effect concentration (IC90) under setting [1] was found to be 0.303 µM.
In the case of `CCc1cc(Nc2nccn3c(-c4cn(CC#N)nc4C(F)(F)F)cnc23)ccc1C(=O)NCC(=O)N1CC2CC1CN2` (stereo not drawn) [Example 512, 4-[[3-[1-(cyanomethyl)-3-(trifluoromethyl)pyrazol-4-yl]imidazo[1,2-a]pyrazin-8-yl]amino]-N-[2-(2,5-diazabicyclo[2.2.1]heptan-2-yl)-2-oxo-ethyl]-2-ethyl-benzamide formate], under setting [1], the IC90 was determined as 0.341 µM.
For the molecule `N[C@@H]1CC[C@H](C(=O)N2CCN(C(=O)c3ccc(Nc4nccn5c(-c6cn(CC(F)F)nc6C(F)(F)F)cnc45)cc3F)CC2)C1` [Example 806, (4-((1S,3R)-3-aminocyclopentane-1-carbonyl)piperazin-1-yl)(4-((3-(1-(2,2-difluoroethyl)-3-(trifluoromethyl)-1H-pyrazol-4-yl)imidazo[1,2-α]pyrazin-8-yl)amino)-2-fluorophenyl)methanone hydrochloride], the IC90 under setting [2] was found to be 0.25 µM.
Turning to `CCc1cc(Nc2nccn3c(-c4cn(CC(F)F)nc4C(F)F)cnc23)ccc1C(=O)N[C@H]1C[C@@H](N)C1` [Example 539, N-((1s,3s)-3-aminocyclobutyl)-4-((3-(1-(2,2-difluoroethyl)-3-(difluoromethyl)-1H-pyrazol-4-yl)imidazo[1,2-a]pyrazin-8-yl)amino)-2-ethylbenzamide], under setting [2], the IC90 worked out at 0.461 µM.
On the same count and under the same terms, the same measure for `C=CCn1cc(-c2cnc3c(Nc4ccc(C(=O)N5CCN(C(=O)C6CCNCC6)CC5)c(CC)c4)nccn23)c(C(F)(F)F)n1` [Example 64, [2-ethyl-4-[[3-[1-prop-2-enyl-3-(trifluoromethyl)pyrazol-4-yl]imidazo[1,2-a]pyrazin-8-yl]amino]phenyl]-[4-(piperidine-4-carbonyl)piperazin-1-yl]methanone]: 0.306 µM; for `NCCCNC(=O)CNCCNC(=O)c1ccc(Nc2nccn3c(-c4cn(CC(F)F)nc4C(F)(F)F)cnc23)cc1Cl` [Example 824, N-(2-((2-((3-aminopropyl)amino)-2-oxoethyl)amino)ethyl)-2-chloro-4-(3-(1-2,2-difluoroethyl)-3-(trifluoromethyl)-1H-pyrazol-4-yl)imidazo[1,2-a]pyrazin-8-yl)amino) benzamide formate]: 0.12 µM; for `CCc1cc(Nc2nccn3c(-c4cn(CCF)nc4C(F)(F)F)cnc23)ccc1C(=O)NCCCN` [Example 56, N-(3-aminopropyl)-2-ethyl-4-[[3-[1-(2-fluoroethyl)-3-(trifluoromethyl)pyrazol-4-yl]imidazo[1,2-a]pyrazin-8-yl]amino]benzamide]: 0.194 µM.
`C#CCn1cc(-c2cnc3c(Nc4ccc(C(=O)N5CCN(C(=O)[C@H]6C[C@H](N)C6)CC5)c(CC)c4)nccn23)c(C(F)F)n1` [Example 734, (4-((1r,3r)-3-aminocyclobutane-1-earbonyl)piperazin-1-yl)(4-((3-(3-(difluoromethyl)-1-(prop-2-yn-1-yl)-1H-pyrazol-4-yl)imidazo[1,2-a]pyrazin-8-yl)amino)-2-ethylphenyl)methanone]: under setting [2], the concentration for an effect of 90% (IC90) was 0.489 µM.
Consider `Cc1cc(Nc2nccn3c(-c4cn(C)nc4C(F)(F)F)cnc23)ccc1C(=O)N1CCN(C(=O)[C@@H]2C[C@](C)(O)CN2)CC1` [Example 472, formic acid; [4-[(2S,4S)-4-hydroxy-4-methylpyrrolidine-2-carbonyl]piperazin-1-yl]-[2-methyl-4-[[3-[1-methyl-3-(trifluoromethyl)pyrazol-4-yl]imidazo[1,2-a]pyrazin-8-yl]amino]phenyl]methanone], for which, under setting [1], the IC90 is 1.24 µM.
